Broadly, the pKi is −log10 of the Ki, conventionally taken in molar units. A higher pKi goes with a low Ki. Usually inhibition stands for the change of the read-out against control, counted positive when it falls.

Molecules are shown by their SMILES. pKi: −log10 of the molar value.

Series [1] addresses 5-hydroxytryptamine receptor 6 (Homo sapiens, UniProt P50406). In words: biochemical.
The target of series [2] is 5-hydroxytryptamine receptor 2A (Homo sapiens, UniProt P28223). Briefly: biochemical. The series is classed as cell-based, CHO-K1.
The target of series [3] is T1, Muscarinic acetylcholine receptor M1 (Homo sapiens) (UniProt P11229).
T1 sequence (whole entry): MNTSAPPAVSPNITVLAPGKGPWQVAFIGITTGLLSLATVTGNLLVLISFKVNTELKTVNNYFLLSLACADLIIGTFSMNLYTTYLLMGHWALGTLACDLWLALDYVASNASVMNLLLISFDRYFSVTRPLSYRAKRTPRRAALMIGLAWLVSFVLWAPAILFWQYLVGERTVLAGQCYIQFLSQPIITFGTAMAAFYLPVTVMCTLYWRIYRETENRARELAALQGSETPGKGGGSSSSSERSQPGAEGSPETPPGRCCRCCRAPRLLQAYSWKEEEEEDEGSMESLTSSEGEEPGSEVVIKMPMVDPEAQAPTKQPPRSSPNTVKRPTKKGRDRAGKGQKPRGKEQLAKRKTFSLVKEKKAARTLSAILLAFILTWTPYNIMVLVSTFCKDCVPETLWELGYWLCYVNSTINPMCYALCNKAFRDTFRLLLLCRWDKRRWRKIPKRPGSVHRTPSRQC
Briefly: Displacement of [3H]pirenzepine from human recombinant M1 receptor expressed in CHO cells at 1 uM. Type of series: cell-based. (Loss of bound radioactivity is the signal in a displacement assay; it reports binding, not function.)

Series [4] deals with D(2) dopamine receptor (Homo sapiens, UniProt P14416). Briefly: biochemical.
Series [5] addresses hERG (KCNH2) potassium channel (Homo sapiens, UniProt Q12809). In words: in vitro. The settings on record: CHO cells expressing human cloned ERG.
Series [6] deals with 5-hydroxytryptamine receptor 7 (Homo sapiens, UniProt P34969). In words: biochemical. The series is classed as cell-based, CHO-K1.
Chain of 5-hydroxytryptamine receptor 7 (P34969 whole entry): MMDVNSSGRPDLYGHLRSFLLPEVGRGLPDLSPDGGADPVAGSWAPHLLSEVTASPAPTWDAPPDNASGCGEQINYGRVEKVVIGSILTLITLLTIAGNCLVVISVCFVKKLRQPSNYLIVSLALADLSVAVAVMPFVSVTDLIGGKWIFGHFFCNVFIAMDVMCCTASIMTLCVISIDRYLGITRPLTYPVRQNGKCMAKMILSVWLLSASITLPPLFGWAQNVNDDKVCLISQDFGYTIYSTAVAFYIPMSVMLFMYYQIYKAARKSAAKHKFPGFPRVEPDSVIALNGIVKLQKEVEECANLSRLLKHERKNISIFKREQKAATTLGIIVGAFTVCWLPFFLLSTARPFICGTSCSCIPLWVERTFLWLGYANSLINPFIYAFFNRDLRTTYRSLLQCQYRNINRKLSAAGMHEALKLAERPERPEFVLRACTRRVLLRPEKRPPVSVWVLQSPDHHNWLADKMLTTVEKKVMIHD

Chain of hERG (KCNH2) potassium channel (Q12809 whole entry): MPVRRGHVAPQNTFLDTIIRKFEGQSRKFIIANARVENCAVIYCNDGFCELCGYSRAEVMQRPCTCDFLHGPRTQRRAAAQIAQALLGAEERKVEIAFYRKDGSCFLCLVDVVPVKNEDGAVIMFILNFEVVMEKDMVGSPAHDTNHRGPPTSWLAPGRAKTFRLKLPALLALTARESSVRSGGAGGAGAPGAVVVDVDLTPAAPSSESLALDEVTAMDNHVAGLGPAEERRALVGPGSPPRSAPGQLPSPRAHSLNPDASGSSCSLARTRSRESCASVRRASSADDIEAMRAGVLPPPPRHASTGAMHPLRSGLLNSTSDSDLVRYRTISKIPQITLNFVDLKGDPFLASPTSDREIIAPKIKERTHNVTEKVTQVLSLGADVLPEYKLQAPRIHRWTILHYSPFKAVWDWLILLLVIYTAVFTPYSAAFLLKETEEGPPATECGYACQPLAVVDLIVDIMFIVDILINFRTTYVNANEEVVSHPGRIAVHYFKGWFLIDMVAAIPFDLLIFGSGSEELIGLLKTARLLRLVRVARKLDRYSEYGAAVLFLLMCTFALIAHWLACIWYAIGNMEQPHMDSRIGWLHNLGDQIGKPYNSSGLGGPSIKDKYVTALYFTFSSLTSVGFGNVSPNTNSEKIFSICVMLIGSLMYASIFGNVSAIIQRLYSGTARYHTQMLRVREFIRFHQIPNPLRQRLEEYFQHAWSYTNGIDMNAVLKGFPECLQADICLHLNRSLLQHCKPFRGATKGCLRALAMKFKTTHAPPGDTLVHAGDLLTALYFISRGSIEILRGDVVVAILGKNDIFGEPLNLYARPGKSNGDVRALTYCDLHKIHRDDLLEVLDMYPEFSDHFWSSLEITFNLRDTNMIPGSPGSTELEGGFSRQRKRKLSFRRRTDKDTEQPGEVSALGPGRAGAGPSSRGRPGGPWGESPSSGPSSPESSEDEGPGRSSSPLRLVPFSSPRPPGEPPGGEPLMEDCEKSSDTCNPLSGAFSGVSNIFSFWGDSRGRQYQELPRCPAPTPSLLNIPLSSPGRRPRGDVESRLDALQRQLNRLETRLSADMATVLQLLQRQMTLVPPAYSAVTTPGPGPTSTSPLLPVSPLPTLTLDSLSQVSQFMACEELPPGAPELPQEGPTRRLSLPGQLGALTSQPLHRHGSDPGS
Chain of 5-hydroxytryptamine receptor 6 (P50406 whole entry): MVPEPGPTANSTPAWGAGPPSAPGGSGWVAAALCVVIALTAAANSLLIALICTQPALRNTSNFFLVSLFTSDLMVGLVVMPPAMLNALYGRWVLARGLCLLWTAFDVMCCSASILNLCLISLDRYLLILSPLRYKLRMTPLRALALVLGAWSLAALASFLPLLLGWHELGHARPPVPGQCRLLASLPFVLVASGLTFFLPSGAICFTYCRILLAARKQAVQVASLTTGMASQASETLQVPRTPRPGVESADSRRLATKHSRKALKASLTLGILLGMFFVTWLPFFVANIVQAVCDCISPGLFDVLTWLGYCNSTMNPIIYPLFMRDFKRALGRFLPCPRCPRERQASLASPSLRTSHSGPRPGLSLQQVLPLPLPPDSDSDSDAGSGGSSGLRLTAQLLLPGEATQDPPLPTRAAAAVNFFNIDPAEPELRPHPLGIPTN
Chain of D(2) dopamine receptor (P14416 whole entry): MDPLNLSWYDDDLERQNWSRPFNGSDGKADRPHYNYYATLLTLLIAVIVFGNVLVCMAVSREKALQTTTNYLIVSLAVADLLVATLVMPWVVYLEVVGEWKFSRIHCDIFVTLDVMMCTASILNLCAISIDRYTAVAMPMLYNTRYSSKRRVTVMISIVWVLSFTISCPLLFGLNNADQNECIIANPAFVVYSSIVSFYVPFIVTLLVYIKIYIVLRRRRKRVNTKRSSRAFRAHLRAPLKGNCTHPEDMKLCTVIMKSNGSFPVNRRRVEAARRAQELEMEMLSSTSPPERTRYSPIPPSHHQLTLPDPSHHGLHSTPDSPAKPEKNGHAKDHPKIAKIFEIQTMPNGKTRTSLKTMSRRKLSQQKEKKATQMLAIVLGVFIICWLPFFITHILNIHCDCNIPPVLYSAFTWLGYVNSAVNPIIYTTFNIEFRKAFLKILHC
Chain of 5-hydroxytryptamine receptor 2A (P28223 whole entry): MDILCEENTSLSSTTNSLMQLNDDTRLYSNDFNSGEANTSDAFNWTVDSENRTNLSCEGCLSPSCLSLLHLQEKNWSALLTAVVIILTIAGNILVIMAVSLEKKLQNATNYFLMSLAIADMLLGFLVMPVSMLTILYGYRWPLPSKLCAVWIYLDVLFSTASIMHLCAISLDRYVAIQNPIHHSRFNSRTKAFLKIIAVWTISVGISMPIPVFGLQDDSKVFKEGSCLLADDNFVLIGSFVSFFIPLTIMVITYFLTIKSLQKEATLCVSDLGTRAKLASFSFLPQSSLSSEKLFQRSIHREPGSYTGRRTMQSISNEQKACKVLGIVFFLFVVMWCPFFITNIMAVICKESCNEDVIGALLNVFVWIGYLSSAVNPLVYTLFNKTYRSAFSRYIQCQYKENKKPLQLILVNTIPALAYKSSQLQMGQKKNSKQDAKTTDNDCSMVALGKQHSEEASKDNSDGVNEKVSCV

For `O=S(=O)(NCCCN1CCC(c2noc3cc(F)ccc23)CC1)c1cc2ccccc2s1`, the pKi was 7.40 in series [1], 9.05 in series [2], 7.96 in series [4] and 8.39 in series [6]. Also, in series [3], the inhibition came to 13%. In series [5], the inhibition at 1 µM came to 34%.

As to `O=S(=O)(NCCCN1CCN(c2noc3ccccc23)CC1)c1cc2ccc(Cl)cc2s1`, the negative-log Ki (pKi) in series [1] was 6.25; in series [2], 7.20; in series [4], 7.52; in series [6], 6.05. For the same molecule, the inhibition in series [3] is 6%. Besides, in series [5], the inhibition at 1 µM was determined as 7%.

For the molecule `Cc1c(S(=O)(=O)NCCCN2CCC(c3noc4cc(F)ccc34)CC2)sc2ccc(F)cc12`, the pKi was 7.60 in series [1], 8.64 in series [2], 8.10 in series [4] and 8.00 in series [6]. Moreover, the inhibition in series [3] came out at 2%. Besides, the inhibition at 1 µM in series [5] was 43%.

For the molecule `Cc1c(S(=O)(=O)NCCCN2CCN(c3nsc4ccccc34)CC2)sc2ccc(F)cc12`, the pKi is 6.92 in series [1], 7.85 in series [2], 8.08 in series [4] and 7.60 in series [6]. In addition, the inhibition in series [3] is -8%. Moreover, in series [5], the inhibition at 1 µM is 3%.

As to `O=S(=O)(NCCCCN1CCC(c2noc3cc(F)ccc23)CC1)c1ccc(F)c(Cl)c1`, the negative-log Ki (pKi) in series [1] is 7.32; in series [2] it was 8.05; in series [4], 7.59; in series [6], 8.36. Moreover, the inhibition in series [3] was 18%. In series [5], the inhibition at 1 µM came to 90%.

Take `O=S(=O)(NCCN1CCC(c2noc3cc(F)ccc23)CC1)c1ccc2ccccc2c1`: the pKi is 6.88 in series [1], 8.74 in series [2], 8.28 in series [4] and 9.40 in series [6]. In series [3], the inhibition is -2%. Further, the inhibition at 1 µM in series [5] came out at 21%.

For the molecule `O=S(=O)(NCCCN1CCC(c2noc3cc(F)ccc23)CC1)c1cccc2ccccc12`, the pKi in series [1] was 7.08; in series [2], 8.77; in series [4], 8.40; in series [6] it was 9.30. For the same molecule, the inhibition in series [3] was -9%. Besides, the inhibition at 1 µM in series [5] turned out to be 27%.

As to `O=S(=O)(NCCCCN1CCN(c2nsc3ccccc23)CC1)c1cccc2scnc12`, the pKi in series [1] was 6.92; in series [2], 8.12; in series [4], 7.80; in series [6], 8.47. Besides, in series [3], the inhibition turned out to be 0%. For the same molecule, the inhibition at 1 µM in series [5] amounted to 34%.

Regarding `O=S(=O)(NCCCN1CCC(c2noc3cc(F)ccc23)CC1)c1cccc2scnc12`, the pKi in series [1] is 7.64; in series [2], 8.04; in series [4], less than 6.00; in series [6], 8.89. Also, the inhibition in series [3] was 1%. Also, the inhibition at 1 µM in series [5] was 51%.

For the molecule `Cc1c(S(=O)(=O)NCCCCN2CCN(c3nsc4ccccc34)CC2)sc2ccc(F)cc12`, the pKi in series [1] is 7.27; in series [2], 8.19; in series [4], 7.36; in series [6], 8.34. For the same molecule, in series [3], the inhibition came out at 10%. In addition, the inhibition at 1 µM in series [5] is 5%.

For `O=S(=O)(NCCCN1CCN(c2nsc3ccccc23)CC1)c1cccc2scnc12`, the pKi in series [1] is 7.57; in series [2] it was 8.08; in series [4], 7.57; in series [6] it was 8.70. Moreover, in series [3], the inhibition came to 0%. Also, the inhibition at 1 µM in series [5] amounted to 16%.

Consider `O=S(=O)(NCCCN1CCN(c2noc3ccccc23)CC1)c1ccc(OC(F)(F)F)cc1`, for which the pKi in series [1] is 5.66; in series [2] it was 6.02; in series [4] it was 7.20; in series [6], 6.42. In addition, the inhibition in series [3] came out at 3%. In series [5], the inhibition at 1 µM was found to be 10%.

Turning to `O=S(=O)(NCCCN1CCN(c2nsc3ccccc23)CC1)c1cc2ccc(Cl)cc2s1`, the negative logarithm of the Ki (pKi) was 6.96 in series [1], 8.02 in series [2] and 7.27 in series [6]. The inhibition in series [3] is -6%. Moreover, in series [5], the inhibition at 1 µM stood at 0%.

As to `O=S(=O)(NCCCCN1CCN(c2nsc3ccccc23)CC1)c1cc2ccccc2s1`, the pKi in series [1] is 7.48; in series [2], 8.22; in series [4], 7.82; in series [6], 8.00. Besides, the inhibition in series [3] is 0%. In series [5], the inhibition at 1 µM worked out at 11%.

As to `O=S(=O)(NCCCN1CCN(c2noc3ccccc23)CC1)c1ccc(Cl)c(Cl)c1`, the negative-log Ki (pKi) in series [1] is 5.96; in series [2] it was 6.54; in series [4] it was less than 5.00; in series [6] it was 7.47. In addition, in series [3], the inhibition amounted to 0%. The inhibition at 1 µM in series [5] amounted to 27%.

For the molecule `O=S(=O)(NCCCN1CCN(c2noc3ccccc23)CC1)c1cccc2scnc12`, the negative-log Ki (pKi) in series [1] was less than 5.00; in series [2], 5.48; in series [4] it was less than 5.00; in series [6], 7.39. Further, in series [3], the inhibition is -2%. The inhibition at 1 µM in series [5] is 17%.

As for `O=S(=O)(NCCCN1CCC(c2noc3cc(F)ccc23)CC1)c1cnc2ccccn12`, the pKi in series [1] is 7.00; in series [2], 8.19; in series [4], 7.82; in series [6] it was 8.49. Also, the inhibition in series [3] is -4%. Moreover, the inhibition at 1 µM in series [5] was determined as 28%.

In the case of `O=S(=O)(NCCCCN1CCN(c2nsc3ccccc23)CC1)c1ccc(Cl)c(Cl)c1`, the pKi is 7.15 in series [1], 7.92 in series [2], 7.57 in series [4] and 8.16 in series [6]. For the same molecule, the inhibition in series [3] was 7%. For the same molecule, in series [5], the inhibition at 1 µM is 45%.

With `Cc1cccc(S(=O)(=O)NCCCCN2CCC(c3noc4cc(F)ccc34)CC2)c1`, the pKi in series [1] is 6.85; in series [2] it was 8.68; in series [4], 7.77; in series [6], 8.82. Besides, the inhibition in series [3] was determined as 11%. For the same molecule, in series [5], the inhibition at 1 µM came to 57%.

Consider `O=S(=O)(NCCCN1CCN(c2noc3ccccc23)CC1)c1cccs1`, for which the pKi in series [1] is less than 5.00; in series [2] it was 6.01; in series [6] it was 7.03. Further, the inhibition in series [3] turned out to be 4%. Moreover, in series [5], the inhibition at 1 µM was 18%.

For the molecule `Cc1cccc(S(=O)(=O)NCCCN2CCN(c3noc4ccccc34)CC2)c1`, the pKi is 5.82 in series [1], 5.38 in series [2], 5.70 in series [4] and 8.00 in series [6]. For the same molecule, in series [5], the inhibition at 1 µM amounted to 8%.

For `O=S(=O)(NCCCN1CCN(c2nsc3ccccc23)CC1)c1ccc(OC(F)(F)F)cc1`, the pKi in series [1] is 7.25; in series [2], 8.02; in series [4] it was 7.57; in series [6] it was 7.54. For the same molecule, the inhibition at 1 µM in series [5] is 50%.

Consider `O=S(=O)(NCCCCN1CCN(c2nsc3ccccc23)CC1)c1ccc(OC(F)(F)F)cc1`, for which the negative-log Ki (pKi) in series [1] is 7.33; in series [2], 8.66; in series [4] it was 7.32; in series [6] it was 7.72. For the same molecule, the inhibition at 1 µM in series [5] was determined as 20%.

For `O=S(=O)(NCCN1CCN(c2nsc3ccccc23)CC1)c1ccc2ccccc2c1`, the pKi was 6.17 in series [1], 9.05 in series [2], 7.74 in series [4] and 8.82 in series [6]. In series [5], the inhibition at 1 µM came out at 0%.

Values taken from ChEMBL document CHEMBL3286108, “Novel arylsulfonamide derivatives with 5-HT₆/5-HT₇ receptor antagonism targeting behavioral and psychological symptoms of dementia” (J Med Chem, 2014).
